Experimental data reported in US20080161248A1, “Methods and Compositions for Therapeutic Treatment” (priority 2006, published 2008).

Tests used:
[1] = test system: mouse spleen cells, response to LPS; assay: In vitro LPS assay on spleen cells; format: cell-based; conditions: high ([…]10^6 cells/well) and low (8×10^5 cells/well) cell concentration
Source text: (§1) Animals: 8-9 weeks-old Lewis and Brown Norway male rats were obtained from Charles River Laboratories. General procedures for animal care and housing was in accordance with the National Research Council (NRC) Guide for the Care and Use of Laboratory Animals (1996) and the Animal Welfare Standards incorporated in 9 CFR Part 3, 1991.
(§2) Spleens were collected for use in in vitro Con A and LPS assays.
FIGS. 10 and 11 show the effect of quercetin and tacrolimus on response of mouse spleen cells to LPS at a high (1.6×10^6 cells/well) and low (8×10^5 cells/well) cell concentration, respectively.

[2] = test system: mouse spleen cells, response to Con A; assay: In vitro Con A assay on spleen cells; format: cell-based
Source text: as §1, §2
Results: FIGS. 8 and 9 show the effect of quercetin and tacrolimus on response of mouse spleen cells to Con A at a high (1.6×10^6 cells/well) and low (8×10^5 cells/well) cell concentration, respectively.
Spleen cells were treated with Con A in the presence of vehicle, tacrolimus, quercetin or two different concentrations of tacrolimus (10^−8.2 and 10^−8.5 M) and increasing doses of quercetin at a high cell concentration (FIG. 14) or at a low cell concentration (FIG. 15). […] There was no significance difference between the effect of quercetin on tacrolimus induced cell suppression in vitro at the different concentrations used for quercetin.

[3] = in vivo; cited from earlier work
[4] = test system: LEW responders activated with Con A (lymphocyte proliferation); assay: Con A stimulated proliferation of spleen cells of treated Lewis rats; format: cell-based, rat; conditions: LNS 0694 i.p. 30 minutes prior to FK506 1 mg/kg i.v.
Procedure: Animals: 8-9 weeks-old Lewis and Brown Norway male rats were obtained from Charles River Laboratories. […] Treatment: Lewis rats were treated with different single doses of LNS 0694i.p. 30 minutes prior to single i.v. injections of tacrolimus at a concentration of 1 mg/kg as described in the table below. Spleens were collected at 4 hr after administration of FK506 for use in the in vitro mixed lymphocyte reaction (MLR) and Con A assays. […] Varying numbers of responder cells were mixed with a constant number of stimulators (105) in 96-well, U-bottom cell culture plates to give a final responder:stimulator (R:S) ratio of 10:1,5: 1, 1:1 and 0.5:1 in 200 μl CM. Control wells for each cell suspension contained 10^5 responders alone in medium and 10^5 pooled, irradiated stimulators alone in medium (separate wells). For a positive proliferative response, each responder (10^5) was treated with 2.5 μg/ml Con A. […] Each well was pulsed with 1 μCi tritiated thymidine for 18±2 hours before automatic harvesting and analysis in a liquid scintillation counter.

[5] = test system: LEW responder splenocytes with irradiated BN stimulators (lymphocyte proliferation); assay: Mixed lymphocyte reaction (MLR) with spleen cells of treated Lewis rats; format: cell-based, rat; conditions: LNS 0694 50, 150, 300 mg/kg i.p. 30 minutes prior to FK506 1 mg/kg i.v.
Procedure: Animals: 8-9 weeks-old Lewis and Brown Norway male rats were obtained from Charles River Laboratories. […] Treatment: Lewis rats were treated with different single doses of LNS 0694i.p. 30 minutes prior to single i.v. injections of tacrolimus at a concentration of 1 mg/kg as described in the table below. Spleens were collected at 4 hr after administration of FK506 for use in the in vitro mixed lymphocyte reaction (MLR) and Con A assays. […] Mixed lymphocyte reactions: A single cell suspension of the spleen of each rat on test (LEW, responder) was prepared with a Dounce homogenizer and wash-medium. The cell suspension was depleted of red blood cells (treatment with NH4CL/Tris buffer) and washed twice with wash medium before resuspending in complete medium (CM; […] A single cell suspension of splenocytes from five Brown Norway rats (BN, stimulators) was prepared with the same method. The BN splenocytes were pooled and irradiated with 1,500-2,000 rad (cesium source) before use. Varying numbers of responder cells were mixed with a constant number of stimulators (105) in 96-well, U-bottom cell culture plates to give a final responder:stimulator (R:S) ratio of 10:1,5: 1, 1:1 and 0.5:1 in 200 μl CM. […] The results of the MLR assays [thymidine incorporation as counts per minute (CPM)] are expressed as mean ±SD.

[6] = Pharmacokinetics of FK 506 i.v. with LNS 0694 i.p. in Lewis rats; format: in vivo, rat; conditions: male Lewis rats; FK 506 1 mg/kg i.v.; LNS 0694 i.p. different doses
Procedure: as §1
Treatment: Lewis rats were treated as described in example 3. Subsets of 3 Lewis rats per group were used for blood sampling at each time point (Groups 2-5) at described in the table below.
Plasma Blood Sample Collection: Whole blood was collected from the retro-orbital sinus under 60:40 CO2:O2 anesthesia using EDTA as the anticoagulant. Sample collection was performed at 9 time points: 5, 15, and 30 min and 1, 2, 4, 6, 8, & 24 hr after administration of FK 506. Three samples were collected from each rat per group (Groups 2-5). The first 2 samples were collected under anesthesia, after which the animal regained consciousness and was retained until the next collection interval. […]
Drug levels were determined in collected whole blood samples using a bioanalytical method developed to detect parent drug levels.
Results: The pharmacokinetics parameters of FK 506 were determined in male Lewis rats after 1 mg/kg i.v. administration alone or in combination with i.p, administration of different doses of LNS 0694 (See FIG. 16).

[7] = Pharmacokinetics of FK506 i.v. with Quercetin i.p. in rats; format: in vivo, rat
Procedure: as §1, with “weeks-old rats, e.g.,” for “weeks-old”, “rats, can be used.” for “rats were obtained from Charles River Laboratories.”, “are” for “was”
Treatment: Rats are treated as i.v with FK506 and i.p. with Quercetin at two different concentrations, 500 mg/kg or 200 mg/kg. Subsets of 3 Lewis rats per group are used for blood sampling at each time point (Groups 2-5) at described in the table below.
Plasma Blood Sample Collection: Whole blood is collected from the retro-orbital sinus under 60:40 CO2:O2 anesthesia using EDTA as the anticoagulant. Sample collection is performed at 9 time points: 5, 15, and 30 min and 1, 2, 4, 6, 8, & 24 hr after administration of FK 506. Three samples were collected from each rat per group (Groups 2-5). The first 2 samples are collected under anesthesia, after which the animal regained consciousness and is retained until the next collection interval. The third/last sample is also collected under anesthesia, however the animal is euthanatized prior to anesthetic recovery.
Whole blood samples are placed on dry ice after collection and stored frozen at […] (±10° C.) until analysis.
Drug levels are determined in collected samples using bioanalytical methods developed to detect parent drug levels known in the art.

mdr1a knockout mice = conditions: cited from earlier work
[8] = higher 200 mg/kg quercetin dose i.p.

O=c1c(O)c(-c2ccc(O)c(O)c2)oc2cc(O)cc(O)c12 [Quercetin, quercetin]
effect on response of spleen cells to LPS (proliferation) [1]: no significant effect
effect on tacrolimus induced cell suppression in vitro ([2]; Con A, tacrolimus 10^-8.2 and 10^-8.5 M, increasing doses of quercetin): did not impair
effect on response of spleen cells to Con A (proliferation) ([2]; high ([…]10^6 cells/well) and low (8×10^5 cells/well) cell concentration): no significant effect
serum half-life [3]: 19 to 25 h
effect on FK 506 inhibitory effect, responders activated with Con A [4]: increased FK 506 inhibitory effect
effect on FK 506 inhibitory effect in MLR [5]: increased FK 506 inhibitory effect in a dose-dependent manner
effect on peripheral bioavailability of FK506 [6]: increases the peripheral bioavailability of FK506 in a dose dependent manner
effect on peripheral bioavailability of FK506 ([7]; Quercetin i.p. different doses): increases the peripheral bioavailability of FK506 in a dose dependent manner
effect on calculated AUC (0-infinity) of FK 506 ([7]; Quercetin i.p. different doses, vs control group): increases
effect on Cmax of FK 506 [7, 8]: increase
effect on Vd of FK 506 [7, 8]: decrease
effect on clearance of FK 506 [7, 8]: decrease

CC[C@H](C)[C@H]1O[C@]2(C=C[C@@H]1C)C[C@@H]1C[C@@H](C/C=C(\C)[C@@H](O[C@H]3C[C@H](OC)[C@@H](O[C@H]4C[C@H](OC)[C@@H](O)[C@H](C)O4)[C@H](C)O3)[C@@H](C)/C=C/C=C3\CO[C@@H]4[C@H](O)C(C)=C[C@@H](C(=O)O1)[C@]34O)O2 [avermectin]
incidence of fetal cleft palate (mdr1a knockout mice): 100%
